Experimental data reported in patent publication US20110112149A1, “EPOTHILONE ANALOGUES, THEIR PHARMACEUTICAL COMPOSITIONS, THEIR USE AND THEIR PREPA RATIONS” (priority 2008, published 2011).
Read-outs that look alike come from different tables or passages of the source.

How the values were obtained:
Type in all cases: cell-based
MCF-7 (Breast Cancer) = assay: SRB cytotoxicity assay, MCF-7; conditions: cells cultured 3 days with compound, read-out: Activity against cancer cell lines (IC50), MCF-7 (Breast Cancer)
Description: (§1) The compounds of the present invention can be screened by conventional assays known in the art. For example, cytotoxicity of the compound can be determined according to SRB assay described in Skehan et. al., J. Natl. Cancer Inst. 1990, 82: 1107, which is incorporated herein by reference.
(§2) In the study, sulforhodamine B (SRB) was used for screening the selective compounds of the present invention according to their anti-tumor activity on four different tumor cell lines. In SRB assay, the cultured cells were trypsinized, then counted and diluted to a suitable concentration (5000-7500 cells/100 μl) with a culture medium. The cells were inoculated into a 96-well microtiter plate at 100 μl suspension/well. The test compounds were diluted in the culture medium to 2×1000 nM˜2×0.001 nM, and added to each well in 100 μl after 20 hours. The cells were then cultured for 3 days, fixed with 100 μl 10% trichloroacetic acid at 4° C. for 1 hour, and then stained with 0.2% SRB/1% acetic acid at room temperature for 20 min. The unbound dye was rinsed with 1% acetic acid. The bound dye was dissolved with 200 μl 10 mM Tris-base. The amount of the bound dye was calculated from OD value detected at wavelength of 515 nm. The amount of the bound dye was in direct proportion to the total amount of cell proteins. The data was analyzed with Kaleida Graph Program, and the half inhibitory concentration (IC50) was calculated. Epothilones D and B were detected in parallel for comparison. The results of the cytotoxic experiments on the tested selective compounds according to the present invention are shown as follows. The other compounds according to the present invention may also be detected with the similar method.

[1] = test system: NCI/ADR-RES (MDR Breast Cancer); assay: SRB cytotoxicity assay, NCI/ADR-RES; conditions: cells cultured 3 days with compound, read-out: Activity against cancer cell lines (IC50), NCI/ADR-RES (MDR Breast Cancer)
Description: as §1, §2

SF-268 (Glioma) = assay: SRB cytotoxicity assay, SF-268; conditions: cells cultured 3 days with compound, read-out: Activity against cancer cell lines (IC50), SF-268 (Glioma)
Description: as §1, §2

NCI-H460 (Lung Cancer) = assay: SRB cytotoxicity assay, NCI-H460; conditions: cells cultured 3 days with compound, read-out: Activity against cancer cell lines (IC50), NCI-H460 (Lung Cancer)
Description: as §1, §2

[2] = Homo sapiens, NCI/ADR-RES, 72 h

Compound `C/C(=C\c1csc(C)n1)[C@@H]1C[C@@H]2O[C@]2(C)CCC[C@H](C)[C@H](O)[C@@H](C)C(=O)C(C)(C)[C@@H](O)CC(=O)O1` [Epo B, Epothilone B, reference compound] has an IC50 (MCF-7 (Breast Cancer)) of 0.5 nM, an IC50 [1] of 5 nM and an IC50 (SF-268 (Glioma)) of 0.8 nM. It also gave an IC50 (NCI-H460 (Lung Cancer)) of 0.7 nM.

`C/C1=C/C[C@@H](/C(C)=C/c2csc(C)n2)OC(=O)C[C@H](O)C(C)(C)C(=O)[C@H](C)[C@@H](O)[C@@H](C)CCC1` [Epo D, Epothilone D, reference compound] gave an IC50 (MCF-7 (Breast Cancer)) of 13 nM, an IC50 [1] of 42 nM and an IC50 (SF-268 (Glioma)) of 18 nM. For the same compound, the IC50 (NCI-H460 (Lung Cancer)) was 17 nM.

`C/C(=C\c1csc(C)n1)C(N)C1OC(=O)CC(O)C(C)(C)C(=O)C(C)C(O)C(C)CCCC2(C)OC12` (centres unmarked) [HH3] was tested, and the IC50 (MCF-7 (Breast Cancer); Homo sapiens, MCF7, 72 h) was 1 nM, the IC50 [1, 2] was 3 nM and the IC50 (SF-268 (Glioma); Homo sapiens, SF-268, 72 h) was 1 nM. For the same compound, the IC50 (NCI-H460 (Lung Cancer); Homo sapiens, NCI-H460, 72 h) was 0.5 nM.

`C/C(=C\c1csc(C)n1)C1OC(=O)CC(O)C(C)(C)C(=O)C(C)C(O)C(C)CCCC2(C)OC12` (centres unmarked) [HH6] was tested, and the IC50 (MCF-7 (Breast Cancer); Homo sapiens, MCF7, 72 h) was 0.2 nM, the IC50 [1, 2] was 1 nM and the IC50 (SF-268 (Glioma); Homo sapiens, SF-268, 72 h) was 1 nM. For the same compound, the IC50 (NCI-H460 (Lung Cancer); Homo sapiens, NCI-H460, 72 h) was 0.5 nM.

In the case of `Cc1nc2cc(C3OC(=O)CC(O)C(C)(C)C(=O)C(C)C(O)C(C)CCCC4(C)OC34)ccc2s1` (centres unmarked) [HH8], the IC50 (MCF-7 (Breast Cancer); Homo sapiens, MCF7, 72 h) is reported as 0.5 nM, the IC50 [1, 2] is reported as 0.5 nM and the IC50 (SF-268 (Glioma); Homo sapiens, SF-268, 72 h) is reported as 1 nM. The IC50 (NCI-H460 (Lung Cancer); Homo sapiens, NCI-H460, 72 h) was 0.2 nM.
